Experiment [1] has as its system human transcriptome. The experiment is described as follows: Chem-CLIP-Map-Seq transcriptome-wide target profiling in live MDA-MB-231 cells. The format is cell-based. As to conditions: 20 μM, 16 h. The protocol:
Additional studies were performed in live MDA-MB-231 cells to profile the cellular targets as well as the small molecule binding site within them, via Chem-CLIP-Map-Seq,^21 which had not previously been applied transcriptome-wide. After treatment (20 μM; 16 h) and cross-linking, total RNA was harvested and fragmented prior to pull-down (FIG. 2A). Random fragmentation was completed first to: 1) reduce sequence bias in library preparation, 2) reduce background signal in the RNA-seq analysis; and 3) allow for only the regions bound by the small molecules to be pulled down rather than the entire transcript, identifying both the target and the binding site within it. In parallel, a control diazirine probe that lacks an RNA-binding functionality (FIG. 2B) was used to identify targets that non-specifically react with the cross-linking moiety, where cross-linking is not driven by the RNA-binding elements.
Genrich uses a null model with a log-normal distribution to calculate p values by comparing sequencing runs of the same RNA sample before and after pull-down.
(§1) Chemical-Cross-linking and Isolation by Pull-down (Chem-CLIP) in Live Cells. MDA-MB-231 cells were seeded in 60 mm dishes and allowed to reach ˜80% confluency. The cells were then treated with 20 μM of compound in growth medium and incubated for 16 h. Cells were washed with 1×DPBS and irradiated with UV light for 10 min. Total RNA was harvested using a Zymo Quick-RNA Miniprep Kit per the manufacturer's protocol with DNase treatment. Total RNA was chemically fragmented by using an NEBNext Magnesium RNA Fragmentation Module (E6150S) per manufacturer's protocol to achieve final lengths between 100-150 nucleotides Pull-down of cross-linked RNAs was performed by adding 10 μg of total RNA to 100 μL of azide-disulfide agarose beads (Click Chemistry Tools, 1238-2) pre-washed with 25 mM HEPES, pH 7.0. The click reaction and pull-down were completed as described in “In Vitro Chemical-Crosslinking and Isolation by Pull-down (Chem-CLIP) with Fluorescently Labeled RNA”. The pulled down RNA was purified by RNA CleanXP beads (Beckman, A66514) per manufacturer's protocol.
RNA-seq Library Preparation and Data Analysis. The quality of the pulled down RNA was analyzed by using an Agilent 2100 Bioanalyzer RNA nanochip as well as to confirm fragment lengths. RNA concentration was quantified by Qubit 2.0 Fluorometer (Invitrogen). The input RNA (200 ng) was depleted of ribosomal RNA with NEBNext rRNA Depletion Module (E6310) according to manufacturer's recommendations. Library preparation was performed with NEBNext Ultra II Directional RNA kit (E7760) per manufacturer's protocols. Briefly, the rRNA-depleted samples were reverse transcribed with random hexamer primers to generate first strand cDNA, followed by second strand synthesis with dUTP instead of dTTP. The cDNA was end repaired and adenylated at their 3′ ends, followed by adaptor ligation. The strand information of the RNA was preserved by using USER enzyme (Uracil-specific excision reagent) to degrade the second strand. The cDNA was then PCR amplified with barcoded Illumina-compatible primers to generate the final libraries. These libraries were loaded into a NextSeq 500 v2.5 flow cell and sequenced with 2×40 bp paired-end chemistry. All fastq files were aligned to the human genome by STAR.^9 The output bam files were processed by Genrich (v0.6.1, available at https://github.com/jsh58/Genrich) for peak calling to identify regions of enrichment (p<0.001 and False Discovery Rate=1%). Fold enrichment was calculated by Deeptool^10 and visualized by IGV browser.^11 A minimum read count of 5 and a minimum fold enrichment of 1.5 were applied filter to filter out low-confidence peaks.

The subject of experiment [2] is QSOX1 mRNA. The experiment is described as follows: Chem-CLIP pull-down of QSOX1 mRNA in live cells, RT-qPCR (dose and time dependence). Format: cell-based, human. The protocol:
as §1
For dose response studies, cells were treated with varying concentration of F1 (1, 5, 20 μM) as described above for 16 h. For time course studies, cells were treated with 20 μM of for 1, 4, 8, or 16 h. With the exception of compound concentration or time at which total RNA was harvested, the remaining steps of the protocol were completed as described above for both concentration- and time-dependent studies.
Analysis of mRNA Abundance by RT-qPCR. Unless stated otherwise, all RT-qPCR experiments were performed to measure nascent RNA levels by using Click-it Nascent RNA Capture Kit (Cat #C10365, Thermo Fisher) per the manufacturer's protocols. Briefly, cells were treated with 0.2 mM of ethynyl uridine (EU) in growth medium for 16 h, after which the medium was replaced with fresh growth medium lacking EU. Compound or ASO treatment was performed at the same time of initial EU treatment, and compounds were replenished after replacing the medium to remove EU. Total RNA was extracted by using a Zymo Quick-RNA Miniprep Kit as per manufacturer's protocol with DNase treatment. The click reaction and pull-down of nascent RNA were performed as described in “In Vitro Chemical-Crosslinking and Isolation by Pull-down (Chem-CLIP) with Fluorescently Labeled RNA”. Reverse transcription (RT) was performed by using 300 ng total RNA and a QScript cDNA synthesis kit (QuantaBio) per manufacturer's protocols qPCR was performed in 384-well plates by using Power SYBR Green Master Mix (Life Technologies) on a QuantStudioS™ Cycler (Applied Biosystems) using the “Comparative Ct with Melt” method.
Background: Real-time PCR tracks product formation cycle by cycle.

Experiment [3] relates to base paired (BP) mutant RNA lacking the U-bulge. The experiment is described as follows: In vitro Chem-CLIP with Cy5-labeled mutant RNA. Format: binding. To be noted: U-bulge mutated to A/U base pair. The protocol:
In Vitro Chemical-Crosslinking and Isolation by Pull-down (Chem-CLIP) with Fluorescently Labeled RNA. Cy5-labeled RNA (100 μL, 2 μM) was folded by heating at 95° C. for 2 min in 1× Folding Buffer and cooled on ice. The RNA was then mixed with F1 at the indicated concentrations. The sample was irradiated with UV light (365 nm) for 15 min and then added to 100 μL of azide-disulfide agarose beads (Click Chemistry Tools, 1238-2) pre-washed with 200 μL of 25 mM HEPES, pH 7.0. A click reaction solution was prepared by mixing 30 μL of 250 mM sodium ascorbate, 30 μL of 10 mM CuSO4, and 30 μL of 50 mM THPTA, which was added to the sample. The sample was incubated while rotating at 37° C. for 2 h, briefly centrifuged, and then the supernatant was decanted. The beads were washed six times with 1× Washing Buffer (10 mM Tris-HCl, pH 7, 4 M NaCl, 1 mM EDTA, and 0.05% (v/v) Tween-20) following by incubation with 1× Releasing Buffer (50 mM TCEP and 100 mM K2CO3) at 37° C. for 30 min. An equivalent of iodoacetamide (200 mM) was added to the sample, which was incubated at 37° C. for an additional 30 min. The sample was briefly centrifuged and supernatant containing RNA was carefully transferred to a clean tube. Cy-5 fluorescence in the supernatant was measured with a Molecular Devices SpectraMax M5 plate reader with an excitation wavelength of 640 nm and an emission wavelength of 680 nm. […]

Take `C#CCCC1(CCC(=O)N(C)[C@H]2CC[C@@H](c3ccc(Cl)c(Cl)c3)c3ccccc32)N=N1` [Compound F1]: the “largest enrichments (two transcripts)” value in experiment [1] was greater than 12 fold. Further, the “number of transcripts enriched after eliminating transcripts also bound by the control diazirine” value in experiment [1] was 51. Besides, the “enrichment of QSOX1 mRNA” value is recorded as roughly 6 fold in experiment [2] (5 μM, 16 h incubation); “no enrichment” in experiment [2] (20 μM, 1 h incubation); roughly 4 fold in experiment [2] (20 μM, 4 h); “plateauing” in experiment [2] (20 μM, 8 h and 16 h time points); roughly 12 fold in experiment [2] (20 μM, 16 h incubation). In experiment [3], the “cross-linking / pull-down of mutant RNA” value was “ablated”.

The values are drawn from patent publication US20250346943A1, “DEGRADER COMPOUNDS OF QSOX1 mRNA” (UNIVERSITY OF FLORIDA RESEARCH FOUNDATION, INCORPORATED, priority 2022, published 2025).
